Experiments:
[1] = tested on: SK-MEL-2; test: Antiproliferative activity against human SK-MEL-2 cells assessed as cell growth inhibition at 10 uM incubated for 24 hrs by sulforhodamine B assay; format: functional; settings: read-out: GI
[2] = tested on: M14; test: Antiproliferative activity against human M14 cells assessed as cell growth inhibition at 10 uM incubated for 24 hrs by sulforhodamine B assay; format: functional; settings: read-out: GI
[3] = tested on: KM12; test: Antiproliferative activity against human KM12 cells assessed as cell growth inhibition at 10 uM incubated for 24 hrs by sulforhodamine B assay; format: functional; settings: read-out: GI
[4] = tested on: MCF7; test: Antiproliferative activity against human MCF7 cells assessed as reduction in cell viability incubated for 24 hrs by sulforhodamine B assay; format: functional, cell-based; settings: MCF7, 24 h
[5] = tested on: UACC-257; test: Antiproliferative activity against human UACC-257 cells assessed as cell growth inhibition at 10 uM incubated for 24 hrs by sulforhodamine B assay; format: functional; settings: read-out: GI
[6] = tested on: SW-620; test: Antiproliferative activity against human SW-620 cells assessed as cell growth inhibition at 10 uM incubated for 24 hrs by sulforhodamine B assay; format: functional; settings: read-out: GI
[7] = tested on: SNB-75; test: Antiproliferative activity against human SNB-75 cells assessed as cell growth inhibition at 10 uM incubated for 24 hrs by sulforhodamine B assay; format: functional; settings: read-out: GI
[8] = tested on: SK-MEL-28; test: Antiproliferative activity against human SK-MEL-28 cells assessed as cell growth inhibition at 10 uM incubated for 24 hrs by sulforhodamine B assay; format: functional; settings: read-out: GI
[9] = tested on: SN12C; test: Antiproliferative activity against human SN12C cells assessed as cell growth inhibition at 10 uM incubated for 24 hrs by sulforhodamine B assay; format: functional; settings: read-out: GI
[10] = tested on: NCI/ADR-RES; test: Antiproliferative activity against human NCI-ADR-RES cells assessed as reduction in cell viability incubated for 24 hrs by sulforhodamine B assay
[11] = tested on: T47D; test: Antiproliferative activity against human T47D cells assessed as cell growth inhibition at 10 uM incubated for 24 hrs by sulforhodamine B assay; format: functional; settings: read-out: GI
[12] = tested on: HT-29; test: Antiproliferative activity against human HT-29 cells assessed as reduction in cell viability incubated for 24 hrs by sulforhodamine B assay; settings: HT-29, 24 h
[13] = tested on: HL-60; test: Antiproliferative activity against human HL-60 cells assessed as cell growth inhibition at 10 uM incubated for 24 hrs by sulforhodamine B assay; format: functional; settings: read-out: GI
[14] = tested on: MDA-MB-231; test: Induction of apoptosis in human MDA-MB-231 cells assessed as late apoptotic cells measured after 48 hrs by Annexin-V-FITC/propidium iodide staining based flow cytometry (reference value: 0.91%); format: functional
[15] = tested on: MDA-MB-468; test: Antiproliferative activity against human MDA-MB-468 cells assessed as cell growth inhibition at 10 uM incubated for 24 hrs by sulforhodamine B assay; format: functional; settings: read-out: GI
[16] = tested on: SK-MEL-5; test: Antiproliferative activity against human SK-MEL-5 cells assessed as cell growth inhibition at 10 uM incubated for 24 hrs by sulforhodamine B assay; format: functional; settings: read-out: GI
[17] = tested on: MDA-MB-231; test: Antiproliferative activity against human MDA-MB-231 cells assessed as reduction in cell viability incubated for 24 hrs by sulforhodamine B assay; format: functional, cell-based; settings: MDA-MB-231, 24 h
[18] = tested on: IGROV-1; test: Antiproliferative activity against human IGROV-1 cells assessed as cell growth inhibition at 10 uM incubated for 24 hrs by sulforhodamine B assay; format: functional; settings: read-out: GI
[19] = tested on: SF-295; test: Antiproliferative activity against human SF-295 cells assessed as cell growth inhibition at 10 uM incubated for 24 hrs by sulforhodamine B assay; format: functional; settings: read-out: GI
[20] = tested on: NCI-H522; test: Antiproliferative activity against human NCI-H522 cells assessed as cell growth inhibition at 10 uM incubated for 24 hrs by sulforhodamine B assay; format: functional; settings: read-out: GI
[21] = tested on: CCRF-CEM; test: Antiproliferative activity against human CCRF-CEM cells assessed as cell growth inhibition at 10 uM incubated for 24 hrs by sulforhodamine B assay; format: functional; settings: read-out: GI
[22] = tested on: DU-145; test: Antiproliferative activity against human DU-145 cells assessed as cell growth inhibition at 10 uM incubated for 24 hrs by sulforhodamine B assay; format: functional; settings: read-out: GI
[23] = tested on: HOP-62; test: Antiproliferative activity against human HOP-62 cells assessed as cell growth inhibition at 10 uM incubated for 24 hrs by sulforhodamine B assay; format: functional; settings: read-out: GI
[24] = tested on: RXF 393; test: Antiproliferative activity against human RXF 393 cells assessed as cell growth inhibition at 10 uM incubated for 24 hrs by sulforhodamine B assay; format: functional; settings: read-out: GI
[25] = molecular target: Carbonic anhydrase 9 (Homo sapiens, UniProt Q16790); test: Inhibition of human CA9 preincubated for 15 mins by phenol red dye based stopped flow CO2 hydration assay
[26] = tested on: OVCAR-5; test: Antiproliferative activity against human OVCAR-5 cells assessed as cell growth inhibition at 10 uM incubated for 24 hrs by sulforhodamine B assay; format: functional; settings: read-out: GI
[27] = tested on: MDA-MB-231; test: Induction of apoptosis in human MDA-MB-231 cells assessed as viable cells measured after 48 hrs by Annexin-V-FITC/propidium iodide staining based flow cytometry (reference value: 97.93%); format: functional
[28] = tested on: MDA-MB-231; test: Cell cycle arrest in human MDA-MB-231 cells assessed as accumulation at G2 phase incubated for 48 hrs by propidium iodide staining based flow cytometric analysis (reference value: 20.65 %); format: functional
[29] = tested on: U-251; test: Antiproliferative activity against human U-251 cells assessed as cell growth inhibition at 10 uM incubated for 24 hrs by sulforhodamine B assay; format: functional; settings: read-out: GI
[30] = tested on: BT-549; test: Antiproliferative activity against human BT-549 cells assessed as cell growth inhibition at 10 uM incubated for 24 hrs by sulforhodamine B assay; format: functional; settings: read-out: GI
[31] = tested on: MCF7; test: Induction of apoptosis in human MCF cells assessed as early apoptotic cells measured after 48 hrs by Annexin-V-FITC/propidium iodide staining based flow cytometry (reference value: 0.09%); format: functional
[32] = tested on: MCF7; test: Cell cycle arrest in human MCF7 cells assessed as accumulation at G2 phase incubated for 48 hrs by propidium iodide staining based flow cytometric analysis (reference value: 20.73 %); format: functional
[33] = tested on: LOX IMVI; test: Antiproliferative activity against human LOX IMVI cells assessed as cell growth inhibition at 10 uM incubated for 24 hrs by sulforhodamine B assay; format: functional; settings: read-out: GI
[34] = tested on: MDA-MB-231; test: Induction of apoptosis in human MDA-MB-231 cells assessed as early apoptotic cells measured after 48 hrs by Annexin-V-FITC/propidium iodide staining based flow cytometry (reference value: 0.02%); format: functional
[35] = tested on: K562; test: Antiproliferative activity against human K562 cells assessed as cell growth inhibition at 10 uM incubated for 24 hrs by sulforhodamine B assay; format: functional; settings: read-out: GI
[36] = tested on: MCF7; test: Induction of apoptosis in human MCF cells assessed as necrotic cells measured after 48 hrs by Annexin-V-FITC/propidium iodide staining based flow cytometry (reference value: 0.94%); format: functional
[37] = tested on: MCF7; test: Antiproliferative activity against human MCF7 cells assessed as cell growth inhibition at 10 uM incubated for 24 hrs by sulforhodamine B assay; format: functional; settings: read-out: GI
[38] = tested on: MCF7; test: Induction of apoptosis in human MCF cells assessed as late apoptotic cells measured after 48 hrs by Annexin-V-FITC/propidium iodide staining based flow cytometry (reference value: 0.82%); format: functional
[39] = tested on: COLO 205; test: Antiproliferative activity against human COLO 205 cells assessed as cell growth inhibition at 10 uM incubated for 24 hrs by sulforhodamine B assay; format: functional; settings: read-out: GI
[40] = tested on: Malme-3M; test: Antiproliferative activity against human Malme-3M cells assessed as cell growth inhibition at 10 uM incubated for 24 hrs by sulforhodamine B assay; format: functional; settings: read-out: GI

For `COc1ccc(OC)c(-c2nc(SCC(=O)c3ccc(Br)cc3)nc(Nc3ccc(S(N)(=O)=O)cc3)c2C#N)c1`, the inhibition of growth at 10 µM [1] was 69.6%, the inhibition of growth at 10 µM [2] was 57.5% and the inhibition of growth at 10 µM [3] was 79.1%. It also gave an IC50 [4] of 2500 nM, an inhibition of growth at 10 µM [5] of 43.1% and an inhibition of growth at 10 µM [6] of 64%. It also gave an inhibition of growth at 10 µM [7] of 77.8%, an inhibition of growth at 10 µM [8] of 42.3% and an inhibition of growth at 10 µM [9] of 50.9%. For the same compound, the IC50 [10] was 33700 nM, the inhibition of growth at 10 µM [11] was 28.9% and the IC50 [12] was 4300 nM. The inhibition of growth at 10 µM [13] was 74.1%, the Activity [14] was 5.2% and the inhibition of growth at 10 µM [15] was 56.1%. The inhibition of growth at 10 µM [16] was 44%, the IC50 [17] was 2400 nM and the inhibition of growth at 10 µM [18] was 45.3%. The inhibition of growth at 10 µM [19] was 66.9%, the inhibition of growth at 10 µM [20] was 52% and the inhibition of growth at 10 µM [21] was 64.7%. It also gave an inhibition of growth at 10 µM [22] of 44.9%, an inhibition of growth at 10 µM [23] of 51.6% and an inhibition of growth at 10 µM [24] of 82.7%. It also gave a Ki [25] of 86.8 nM, an inhibition of growth at 10 µM [26] of 26.7% and an Activity [27] of 87.15%. It also gave an Activity [28] of 30.07%, an inhibition of growth at 10 µM [29] of 62.4% and an inhibition of growth at 10 µM [30] of 50.6%. The Activity [31] was 0.73%, the Activity [32] was 50.47% and the inhibition of growth at 10 µM [33] was 67.4%. It also gave an Activity [34] of 0.48%, an inhibition of growth at 10 µM [35] of 77.5% and an Activity [36] of 7.15%. For the same compound, the inhibition of growth at 10 µM [37] was 71.1%, the Activity [38] was 3.96% and the inhibition of growth at 10 µM [39] was 31.6%. It also gave an inhibition of growth at 10 µM [40] of 49.8%.

Source: ChEMBL document CHEMBL5038625, “Application of the dual-tail approach for the design and synthesis of novel Thiopyrimidine-Benzenesulfonamide hybrids as selective carbonic anhydrase inhibitors” (Eur J Med Chem, 2022)
